Laboratory results published in patent EP4714939A1, “SULFONAMIDE COMPOUND, PREPARATION METHOD THEREFOR, AND PHARMACEUTICAL USE THEREOF” (Shenzhen Salubris Pharmaceuticals Co., Ltd., priority 2023, dated 2024).

Columns and labels:
[1] = in vivo; conditions: cynomolgus monkey
Source text: (§1) Cynomolgus monkey: male, 3-6 kg, purchased from Guangzhou Huazhen biotechnology Co., Ltd. and Hainan Jingang Biotech Co., Ltd.

[2] = test system: Lp(a); assay: In-vitro Lp(a) assembly assay (cell-free, sandwich ELISA); format: biochemical; conditions: inhibition of Lp(a) formation; HepG2 and HEK293 (human Apo(a), 17 Kringle repeats) conditioned media, 37°C, 2 hours; 4-parameter curve
Protocol: The capability of the compounds in the examples inhibiting the formation of Lp(a) particles in vitro was evaluated through cell-free assembly assay. After incubation at 37°C with 5% CO2 for 96 h, conditioned media (supplemented with 10% FBS, 20 mM HEPES, and 1 × penicillin/streptomycin DMEM) was collected from confluent wild-type HepG2 cells (source of endogenously expressed ApoB) and an HEK293 stable cell line expressing human Apo(a) protein containing 17 Kringle repeats (selected on 1 ug/ml puromycin). In-vitro assembly assay was performed by combining equal parts of HepG2 and HEK293 conditioned media with compounds under test added in a dilution series (final concentration being 0.03-1000 nM). A reaction was incubated at 37°C for 2 hours, and terminated by adding 6-aminocaproic acid (EACA) to a final concentration of 150 mM. Sandwich ELISA was used to detect Lp(a) using an anti-Apo(a) capture antibody (ab242565) and an HRP-conjugated anti-ApoB detection antibody (ab27622). ELISA was performed using TMB staining, and terminated with 1N sulfuric acid, and signals were read at 450 nm on an Envision 2104 plate reader. By setting an assembly reaction without inhibitors to 0% inhibition and an assembly reaction with the minimum amount of HepG2 conditioned medium (50-fold dilution) to 100% inhibition, the % inhibition of Lp(a) formed under each test condition was determined. Table 1 IC90 values of sulfonamide compounds

[3] = Pharmacokinetic experiment for monkeys; conditions: Cynomolgus monkey, 5 mg/kg, p.o
Source text: as §1

O=C(O)[C@@H](Cc1cccc(CN(CCc2ccccc2C[C@H](C(=O)O)[C@H]2CCNC2)S(=O)(=O)c2cccc(C[C@H](C(=O)O)[C@H]3CCNC3)c2)c1)[C@H]1CCNC1 [Compound 3]
AUC(0-t) ([1]; iv, 0.5 mg/kg): 33300 ng·h/mL
half-life ([1]; iv, 0.5 mg/kg): 31.6 h
IC90 [2]: 61 nM

O=C(O)[C@@H](Cc1cccc(S(=O)(=O)N(Cc2ccc(F)c(C[C@H](C(=O)O)[C@H]3CCNC3)c2)Cc2ccc(F)c(C[C@H](C(=O)O)[C@H]3CCNC3)c2)c1)[C@H]1CCNC1 [Compound 9]
AUC(0-t) ([1]; po, 5 mg/kg): 22100 ng·h/mL
Cmax ([1]; po, 5 mg/kg): 1690 ng/mL
IC90 [2]: 45.8 nM
F [3]: 7.49%

O=C(O)[C@@H](Cc1cccc(CN(Cc2cccc(C[C@H](C(=O)O)[C@H]3CCNC3)c2)S(=O)(=O)c2cccc(C[C@H](C(=O)O)[C@H]3CCNC3)c2)c1)[C@H]1CCNC1 [Compound 1]
AUC(0-t) ([1]; iv, 0.5 mg/kg): 41000 ng·h/mL
half-life ([1]; iv, 0.5 mg/kg): 21 h
IC90 [2]: 49.9 nM

O=C(O)[C@@H](Cc1cccc(S(=O)(=O)N(Cc2cc(C[C@H](C(=O)O)[C@H]3CCNC3)c(F)cc2F)Cc2cc(C[C@H](C(=O)O)[C@H]3CCNC3)c(F)cc2F)c1)[C@H]1CCNC1 [Compound 16]
IC90 [2]: 23.8 nM

O=C(O)C(Cc1cccc(S(=O)(=O)N(Cc2ccc(Cl)c(CC(C(=O)O)C3CCNC3)c2)Cc2ccc(Cl)c(CC(C(=O)O)C3CCNC3)c2)c1)C1CCNC1 [Compound 40, (2S,2'S)-3,3'-(3-((S)-2-carboxyl-2-((R)-pyrrolid-3-yl)ethyl)phenyl)sulfonyl)azadiyl)dimethylenyl)bis(6-chloro-3,1-phenylenyl)bis(2-(R)-pyrrolid-3-yl)propanoic acid)]
IC90 [2]: 15.7 nM

O=C(O)[C@@H](Cc1cc(CN(Cc2ccc(F)c(C[C@H](C(=O)O)[C@H]3CCNC3)c2)S(=O)(=O)c2ccc(Cl)c(C[C@H](C(=O)O)[C@H]3CCNC3)c2)ccc1F)[C@H]1CCNC1 [Compound 36, (2S,2'S)-3,3'-(((((3-((S)-2-carboxyl-2-((R)-pyrrolid-3-yl)ethyl)-4-chlorophenyl)sulfonyl)azadiyl)bis(methylenyl))bis(6-fluoro-3,1-phenylenyl))bis(2-((R)-pyrrolid-3-yl)propanoic acid)]
IC90 [2]: 21.6 nM

O=C(O)[C@@H](Cc1cccc(CN(Cc2cccc(C[C@H](C(=O)O)[C@H]3CCNC3)c2)S(=O)(=O)c2ccc(F)c(C[C@H](C(=O)O)[C@H]3CCNC3)c2)c1)[C@H]1CCNC1 [Compound 6]
IC90 [2]: 47.8 nM

O=C(O)C(Cc1cccc(S(=O)(=O)N(Cc2ccc(Cl)c(CC(C(=O)O)C3CCNC3)c2)Cc2ccc(Cl)c(CC(C(=O)O)C3CCNC3)c2)c1)C1CCNC1 [Compound 41, (2S,2'S)-3,3'-(3-((S)-2-carboxyl-2-((R)-pyrrolid-3-yl)ethyl)phenyl)sulfonyl)azadiyl)dimethylenyl)bis(6-chloro-3,1-phenylenyl)bis(2-(R)-pyrrolid-3-yl)propanoic acid)]
IC90 [2]: 38.1 nM

O=C(O)[C@@H](Cc1cc(F)cc(CCN(Cc2cccc(C[C@H](C(=O)O)[C@H]3CCNC3)c2)S(=O)(=O)c2cccc(C[C@H](C(=O)O)[C@H]3CCNC3)c2)c1)[C@H]1CCNC1 [Compound 28]
IC90 [2]: 86.5 nM

O=C(O)[C@@H](Cc1cccc(CN(Cc2cc(C[C@H](C(=O)O)[C@H]3CCNC3)ccc2F)S(=O)(=O)c2cccc(C[C@H](C(=O)O)[C@H]3CCNC3)c2)c1)[C@H]1CCNC1 [Compound 4]
IC90 [2]: 40.3 nM

O=C(O)[C@@H](Cc1cccc(CN(Cc2cccc(C[C@H](C(=O)O)[C@H]3CCNC3)c2F)S(=O)(=O)c2cccc(C[C@H](C(=O)O)[C@H]3CCNC3)c2)c1)[C@H]1CCNC1 [Compound 5]
IC90 [2]: 37.9 nM

O=C(O)C(Cc1cc(S(=O)(=O)N(Cc2ccc(Cl)c(CC(C(=O)O)C3CCNC3)c2)Cc2ccc(Cl)c(CC(C(=O)O)C3CCNC3)c2)ccc1F)C1CCNC1 [Compound 42, (2S,2'S)-3,3'(3-((S)-2-carboxyl-2-(R)-pyrrolid-3-yl)ethyl)-4-fluorophenylsu lfonyl)azadiyl)dimethylenyl)bis(6-chloro-3,1-phenylenyl)bis(2-(R)-pyrrolid-3-yl)propanoic acid)]
IC90 [2]: 25.1 nM

O=C(O)C(Cc1cccc(CN(Cc2cccc(CC(C(=O)O)C3CCNC3)c2)S(=O)(=O)c2cc(CC(C(=O)O)C3CCNC3)ccc2F)c1)C1CCNC1 [Compound 29, (2S,2'S)-3,3'(5-((S)-2-carboxyl-2-(R)-pyrrolid-3-yl)ethyl)-2-fluorophenyl sulfonyl)azadiyl)dimethylenyl)bis(3,1-phenylenyl)bis(2-(R)-pyrrolid-3-yl)propanoic acid)]
IC90 [2]: 24.9 nM
